Experimental data published in patent US8329726B2, “Inhibitors of VEGF receptor and HGF receptor signaling” (MethylGene Inc., priority 2005, dated 2012).

Legend:
A549 = A549 wound healing inhibition (HGF dependent migration); format: cell-based; conditions: Homo sapiens, A549 cells, read-out: A549 WOUND HEALING INHIB IC50
Description: (§1) HGF has well known activity in terms of inducing scattering and migration (wound healing) (Wells et al., Cell Motil Cytoskeleton. 2005 November 62(3):180-94; Miura et al., Urology 2001 December 58(6):1064-9; Nishimura et al., Int J Urol. 1998 May 5(3):276-81; Wang et al., Mol Cancer Ther. 2003 November; 2(11):1085-92; and Christensen et al., Cancer Res. 2003 Nov. 1; 63(21):7345-55).

VEGF receptor KDR = molecular target: T1, VEGF receptor KDR (Homo sapiens, UniProt P35968); assay: In vitro receptor tyrosine kinase assay (DELFIA), VEGF receptor KDR; format: biochemical; conditions: read-out: VEGFR IC50
T1 construct: made in house; host or cells: Sf9 cells (Spodoptera frugiperda), baculovirus
T1 sequence (P35968 806-1356): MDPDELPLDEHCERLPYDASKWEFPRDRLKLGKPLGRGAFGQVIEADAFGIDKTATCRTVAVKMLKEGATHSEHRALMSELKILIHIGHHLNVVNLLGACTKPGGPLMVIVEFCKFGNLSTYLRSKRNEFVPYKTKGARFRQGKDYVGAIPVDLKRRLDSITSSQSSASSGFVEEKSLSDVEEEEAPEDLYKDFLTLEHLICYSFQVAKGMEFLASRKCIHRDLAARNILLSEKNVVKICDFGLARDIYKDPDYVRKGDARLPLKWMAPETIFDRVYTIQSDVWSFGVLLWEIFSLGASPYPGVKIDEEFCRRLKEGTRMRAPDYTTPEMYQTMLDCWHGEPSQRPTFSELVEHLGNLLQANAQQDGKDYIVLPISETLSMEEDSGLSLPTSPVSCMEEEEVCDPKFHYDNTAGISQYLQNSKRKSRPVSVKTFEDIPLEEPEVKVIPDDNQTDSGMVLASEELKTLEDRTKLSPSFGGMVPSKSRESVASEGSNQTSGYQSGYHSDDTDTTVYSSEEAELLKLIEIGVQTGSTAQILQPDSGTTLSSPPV

DU145 = DU145 scattering inhibition (HGF dependent scattering); format: cell-based; conditions: Homo sapiens, DU-145; HGF dependent scattering, DU145 cells; read-out: DU145 SCATTERING INHIB IC50
Description: as §1

[1] = molecular target: T2, recombinant human c-Met/HGF receptor (Homo sapiens, UniProt P08581); assay: In vitro receptor tyrosine kinase assay (DELFIA), c-Met/HGF receptor; format: biochemical; conditions: read-out: CMET IC50
T2 construct: His tag (pBlueBacHis2A vector); made in house; host or cells: Hi-5 cells (Trichoplusia ni), baculovirus
T2 sequence (P08581 1078-1337): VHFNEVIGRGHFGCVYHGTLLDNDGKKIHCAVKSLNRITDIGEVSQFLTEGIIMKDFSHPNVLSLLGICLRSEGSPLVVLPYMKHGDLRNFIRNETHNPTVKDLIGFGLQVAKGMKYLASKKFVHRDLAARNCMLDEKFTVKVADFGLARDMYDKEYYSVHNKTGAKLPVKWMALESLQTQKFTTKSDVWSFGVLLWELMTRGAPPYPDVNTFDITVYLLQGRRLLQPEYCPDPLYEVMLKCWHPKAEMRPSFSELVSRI
Procedure: Cell pellets were frozen at −80° C. until purification was performed.
The coated plates were washed and stored at 4° C. […] After incubation, the kinase reactions were quenched with EDTA and the plates were washed.

Row | Structure (SMILES) | IC50 (A549) | IC50 (VEGF receptor KDR) | IC50 (DU145) | IC50 [1]
1 | COc1ccccc1NC(=O)CC(=O)Nc1ccc(Oc2ccnc3cc(C(=O)N4CC(O)C4)sc23)c(F)c1 | 1000 to 5000 nM | < 50 nM | 1000 to 5000 nM | 50 to 250 nM
2 | COc1ccccc1NC(=O)CC(=O)Nc1ccc(Oc2ccnc3cc(-c4cncn4C)sc23)c(F)c1 [drawing 289] | 1000 to 5000 nM | < 50 nM | 1000 to 5000 nM | < 50 nM
3 | COc1ccccc1CCNC(=O)C(=O)Nc1ccc(Oc2ccnc3cc(-c4cn(C)cn4)sc23)c(F)c1 | 5000 to 10000 nM | < 50 nM | > 10000 nM | 250 to 500 nM
4 | Cn1cnc(-c2cc3nccc(Oc4ccc(NC(=O)C5CCN(c6ccc(F)cc6)C5=O)cc4F)c3s2)c1 (stereo not drawn) | < 1000 nM | < 50 nM | < 1000 nM | < 50 nM
5 | CN(C(=O)CC(=O)Nc1ccc(Oc2ccnc3cc(-c4cn(CCCN5CCCC5)cn4)sc23)c(F)c1)c1ccccc1 | 1000 to 5000 nM | < 50 nM | < 1000 nM | < 50 nM
6 | Cn1ccnc1-c1cc2nccc(Oc3ccc(NC(=O)CC(=O)Nc4ccccc4F)cc3F)c2s1 [drawing 285] | < 1000 nM | < 50 nM | < 1000 nM | < 50 nM
7 | Cn1cnc(-c2cc3nccc(Oc4ccc(NC(CC(=O)Nc5ccc(F)cc5)C(F)(F)F)cc4F)c3s2)c1 (stereo not drawn) | < 1000 nM | < 50 nM | < 1000 nM | 50 to 250 nM
8 | COc1ccccc1NC(=O)CC(Nc1ccc(Oc2ccnc3cc(-c4cn(C)cn4)sc23)c(F)c1)C(F)(F)F (stereo not drawn) | 1000 to 5000 nM | < 50 nM | > 10000 nM | > 500 nM
9 | CN1CCN(Cc2ccc(-c3cc4nccc(Oc5ccc(NC(=O)CC(=O)Nc6ccccc6)cc5F)c4s3)cc2)CC1 | 1000 to 5000 nM | < 50 nM | < 1000 nM | < 50 nM
10 | Cn1cnc(-c2cc3nccc(Oc4ccc(NC(=O)N5CCN(c6ccc(F)cc6)C5=O)cc4F)c3s2)c1 | < 1000 nM | < 50 nM | < 1000 nM | < 50 nM
11 | CN1CCN(CCN(C)Cc2cccc(-c3cc4nccc(Oc5ccc(NC(=O)CC(=O)N(C)c6ccccc6)cc5F)c4s3)c2)CC1 | < 1000 nM | < 50 nM | < 1000 nM | 50 to 250 nM
12 | CN1CCN(Cc2ccc(-c3cc4nccc(Oc5ccc(NC(=O)N6CCN(c7ccccc7)C6=O)cc5F)c4s3)cc2)CC1 | < 1000 nM | < 50 nM | < 1000 nM | < 50 nM
13 | COc1ccc(NC(=O)C2(C(=O)Nc3ccc(Oc4ccnc5cc(-c6cn(C)cn6)sc45)c(F)c3)CC2)cc1 | 1000 to 5000 nM | < 50 nM | 1000 to 5000 nM | 50 to 250 nM
14 | Cn1cnc(-c2cc3nccc(Oc4ccc(NC(=O)N5CCN(c6ccccc6)C5=O)cc4)c3s2)c1 | < 1000 nM | 50 to 250 nM | < 1000 nM | < 50 nM
15 | COCCNCc1ccc(-c2cc3nccc(Oc4ccc(NC(=O)N5CCN(c6ccccc6)C5=O)cc4F)c3s2)cc1 | < 1000 nM | < 50 nM | < 1000 nM | < 50 nM
16 | CN1CCN(CCN(C)Cc2ccc(-c3cc4nccc(Oc5ccc(NC(=O)N6CCN(c7ccccc7)C6=O)cc5F)c4s3)cc2)CC1 | > 10000 nM | < 50 nM | 1000 to 5000 nM | < 50 nM
17 | CCn1cnc(-c2cc3nccc(Oc4ccc(NC(=O)CC(=O)N(C)c5ccccc5)cc4F)c3s2)c1 | < 1000 nM | < 50 nM | < 1000 nM | < 50 nM
18 | CCn1cnc(-c2cc3nccc(Oc4ccc(NC(=O)N5CCN(c6ccc(F)cc6)C5=O)cc4F)c3s2)c1 | < 1000 nM | < 50 nM | < 1000 nM | < 50 nM
19 | CCn1cnc(-c2cc3nccc(Oc4ccc(NC(=O)CC(=O)Nc5ccccc5F)cc4F)c3s2)c1 [drawing 293] | < 1000 nM | < 50 nM | < 1000 nM | < 50 nM
20 | COc1cccc(Nc2cc3nccc(Oc4ccc(NC(=O)CC(=O)Nc5ccccc5)cc4F)c3s2)c1 | 1000 to 5000 nM | > 500 nM | 1000 to 5000 nM | 50 to 250 nM
21 | CN1CCN(CCN(C)Cc2ccc(-c3cc4nccc(Oc5ccc(NC(=O)CC(=O)Nc6ccccc6)cc5F)c4s3)cc2)CC1 [drawing 351] | < 1000 nM | < 50 nM | < 1000 nM | < 50 nM
22 | O=C(Nc1ccc(Oc2ccnc3cc(-c4cn(CCN5CCCC5)cn4)sc23)c(F)c1)C1CCN(c2ccccc2)C1=O (stereo not drawn) | 1000 to 5000 nM | < 50 nM | < 1000 nM | 50 to 250 nM
23 | COc1ccccc1NC(=O)CC(=O)Nc1ccc(Oc2ccnc3cc(-c4cnc(N5CCOCC5)nc4)sc23)c(F)c1 | > 10000 nM | > 500 nM | > 10000 nM | > 500 nM

Row | Structure (SMILES) | IC50 (A549) | IC50 (VEGF receptor KDR) | IC50 (DU145) | IC50 [1]
24 | COc1ccccc1NC(=O)CC(=O)Nc1ccc(Oc2ccnc3cc(N4CCCC4=O)sc23)c(F)c1 | < 1000 nM | 50 to 250 nM | < 1000 nM | 50 to 250 nM
25 | CCn1ccnc1-c1cc2nccc(Oc3ccc(NC(=O)N4CCN(c5ccccc5)C4=O)cc3F)c2s1 | < 1000 nM | < 50 nM | < 1000 nM | < 50 nM
26 | Cn1cnc(-c2cc3nccc(Oc4ccc(NC(CC(=O)Nc5ccc(F)cc5)C(F)(F)F)cc4)c3s2)c1 (stereo not drawn) | 1000 to 5000 nM | < 50 nM | 1000 to 5000 nM | 50 to 250 nM
27 | CCCn1cnc(-c2cc3nccc(Oc4ccc(NC(=O)CC(=O)Nc5cccc(F)c5)cc4F)c3s2)c1 | 1000 to 5000 nM | < 50 nM | < 1000 nM | 50 to 250 nM
28 | Cn1cnc(-c2cc3nccc(Oc4ccc(NC(=O)C5(C(=O)Nc6ccc(F)cc6)CC5)cc4F)c3s2)c1 | < 1000 nM | < 50 nM | < 1000 nM | < 50 nM
29 | CCn1cc(-c2cc3nccc(Oc4ccc(NC(=O)CC(=O)Nc5ccccc5OC)cc4F)c3s2)nc1CN(C)C | < 1000 nM | < 50 nM | < 1000 nM | < 50 nM
30 | CN(C)CCn1cnc(-c2cc3nccc(Oc4ccc(NC(=O)CC(=O)N(C)c5ccccc5)cc4F)c3s2)c1 | < 1000 nM | < 50 nM | < 1000 nM | < 50 nM
31 | CCn1cnc(-c2cc3nccc(Oc4ccc(NC(=O)C(=O)NCCc5ccccc5F)cc4F)c3s2)c1 | 1000 to 5000 nM | 50 to 250 nM | > 10000 nM | 50 to 250 nM
32 | CN1CCN(C(=O)C2(C(=O)Nc3ccc(Oc4ccnc5cc(-c6cn(C)cn6)sc45)c(F)c3)CC2)c2ccccc21 | 1000 to 5000 nM | < 50 nM | 1000 to 5000 nM | > 500 nM
33 | CN1CCN(CCN(C)Cc2ccc(-c3cc4nccc(Oc5ccc(NC(=O)CC(=O)Nc6cccc(F)c6)cc5F)c4s3)cc2)CC1 | 1000 to 5000 nM | < 50 nM | 1000 to 5000 nM | 50 to 250 nM
34 | Cn1cnc(-c2cc3nccc(Oc4ccc(NC(=O)C5(C(=O)Nc6ccccc6)CC5)cc4F)c3s2)c1 | < 1000 nM | < 50 nM | < 1000 nM | < 50 nM
35 | COc1ccccc1CCNC(=O)C(=O)Nc1ccc(Oc2ccnc3cc(-c4ccc(OCCN5CCOCC5)c(OC)c4)sc23)c(F)c1 | 1000 to 5000 nM | > 500 nM | > 10000 nM | 250 to 500 nM
36 | Cn1cnc(-c2cc3nccc(Oc4ccc(NC(=O)N5CCN(C6CCCCC6)C5=O)cc4F)c3s2)c1 | 1000 to 5000 nM | < 50 nM | < 1000 nM | < 50 nM
37 | O=C(CC(=O)Nc1ccc(Oc2ccnc3cc(-c4cn(CCO)cn4)sc23)c(F)c1)Nc1ccccc1 | < 1000 nM | < 50 nM | < 1000 nM | < 50 nM
38 | COc1ccccc1NC(=O)CC(=O)Nc1ccc(Oc2ccnc3cc(-c4cccc(OCCCNC(=N)N)c4)sc23)c(F)c1 | 1000 to 5000 nM | > 500 nM | > 10000 nM | 50 to 250 nM
39 | O=C(Nc1ccc(Nc2ccnc3cc(-c4cn(CCN5CCCC5)cn4)sc23)c(F)c1)N1CCN(c2ccccc2)C1=O | > 10000 nM | 250 to 500 nM | > 10000 nM | < 50 nM
40 | CN1CC=C(c2cc3nccc(Oc4ccc(NC(=O)C5(C(=O)Nc6ccccc6)CC5)cc4F)c3s2)CC1 | 1000 to 5000 nM | < 50 nM | < 1000 nM | < 50 nM
41 | CCn1cnc(-c2cc3nccc(Oc4ccc(NC(=O)C5(C(=O)Nc6ccccc6)CC5)cc4F)c3s2)c1 [drawing 317] | < 1000 nM | < 50 nM | < 1000 nM | < 50 nM
42 | CCCn1cnc(-c2cc3nccc(Oc4ccc(NC(=O)CC(=O)Nc5ccccc5OC)cc4F)c3s2)c1 | 1000 to 5000 nM | < 50 nM | < 1000 nM | < 50 nM
43 | CN1CCN(Cc2ccc(-c3cc4nccc(Oc5ccc(NC(=O)C6(C(=O)Nc7ccc(F)cc7)CC6)cc5F)c4s3)cc2)CC1 | < 1000 nM | < 50 nM | < 1000 nM | < 50 nM
44 | CCCn1cnc(-c2cc3nccc(Oc4ccc(NC(=O)CC(=O)Nc5ccccc5F)cc4F)c3s2)c1 | < 1000 nM | < 50 nM | < 1000 nM | < 50 nM
45 | CN(C)CC#Cc1cc2nccc(Oc3ccc(NC(=O)CC(=O)Nc4ccccc4F)cc3F)c2s1 | > 10000 nM | 50 to 250 nM | 1000 to 5000 nM | 50 to 250 nM
